Data taken from ChEMBL document CHEMBL1201862, “PubChem BioAssay data set” (2004).
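1) Cells in 96-well plates. 2) Compound, 48 h, 5 concentrations. 3) Linear interpolation between surrounding doses. 4) Unreached endpoint = highest concentration. GI50 = concentration required for 50% inhibition of growth.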 Activity calls are given as the source filed them. No stated cut-off is given here; in the data, active = GI50 up to about 1.1 µM and inactive = higher.

Key:
Assay in all cases: inhibition of tumour cell growth, NCI panel, 48 h
786-0 = tested on: 786-0
A498 = tested on: A498
A549 = tested on: A549
CAKI-1 = tested on: CAKI-1
CCRF-CEM = tested on: CCRF-CEM
COLO 205 = tested on: COLO 205
DLD-1 = tested on: DLD-1
DMS-114 = tested on: DMS-114
DMS-273 = tested on: DMS-273
EKVX = tested on: EKVX
HCC 2998 = tested on: HCC 2998
HCT-116 = tested on: HCT-116
HCT-15 = tested on: HCT-15
HL-60 = tested on: HL-60
HOP-18 = tested on: HOP-18
HOP-92 = tested on: HOP-92
HT-29 = tested on: HT-29
IGROV-1 = tested on: IGROV-1
K562 = tested on: K562
KM12 = tested on: KM12
LOX IMVI = tested on: LOX IMVI
LXFL 529 = tested on: LXFL 529
M14 = tested on: M14
M19-MEL = tested on: M19-MEL
MOLT-4 = tested on: MOLT-4
NCI-H226 = tested on: NCI-H226
NCI-H23 = tested on: NCI-H23
NCI-H460 = tested on: NCI-H460
NCI-H522 = tested on: NCI-H522
OVCAR-3 = tested on: OVCAR-3
OVCAR-8 = tested on: OVCAR-8
RPMI-8226 = tested on: RPMI-8226
RXF 393 = tested on: RXF 393
RXF 631 = tested on: RXF 631
SF-295 = tested on: SF-295
SF-539 = tested on: SF-539
SK-MEL-28 = tested on: SK-MEL-28
SK-MEL-5 = tested on: SK-MEL-5
SK-OV-3 = tested on: SK-OV-3
SN12C = tested on: SN12C
SNB-75 = tested on: SNB-75
SNB-78 = tested on: SNB-78
SW-620 = tested on: SW-620
TK-10 = tested on: TK-10
U-251 = tested on: U-251
UACC-257 = tested on: UACC-257
UACC-62 = tested on: UACC-62
UO-31 = tested on: UO-31
HOP-62 = tested on: HOP-62
KM-20L2 = tested on: KM-20L2
Malme-3M = tested on: Malme-3M
OVCAR-5 = tested on: OVCAR-5
SF-268 = tested on: SF-268
SK-MEL-2 = tested on: SK-MEL-2
SNB-19 = tested on: SNB-19
SR = tested on: SR
XF498 = tested on: XF498

## COC12OCCN(C)C1=CC(=O)C1N=NCC12 (centres undefined)
786-0
  GI50: > 100 µM (inactive)
A498
  GI50: > 100 µM (inactive)
A549
  GI50: > 100 µM (inactive)
CAKI-1
  GI50: > 100 µM (inactive)
CCRF-CEM
  GI50: > 100 µM (inactive)
COLO 205
  GI50: > 100 µM (inactive)
DLD-1
  GI50: > 100 µM (inactive)
DMS-114
  GI50: > 100 µM (inactive)
DMS-273
  GI50: > 100 µM (inactive)
EKVX
  GI50: > 100 µM (inactive)
HCC 2998
  GI50: > 100 µM (inactive)
HCT-116
  GI50: > 100 µM (inactive)
HCT-15
  GI50: > 100 µM
HL-60
  GI50: > 100 µM (inactive)
HOP-18
  GI50: > 100 µM (inactive)
HOP-92
  GI50: > 100 µM (inactive)
HT-29
  GI50: > 100 µM (inactive)
IGROV-1
  GI50: > 100 µM (inactive)
K562
  GI50: > 100 µM (inactive)
KM12
  GI50: > 100 µM (inactive)
LOX IMVI
  GI50: > 100 µM (inactive)
LXFL 529
  GI50: > 100 µM (inactive)
M14
  GI50: > 100 µM (inactive)
M19-MEL
  GI50: > 100 µM (inactive)
MOLT-4
  GI50: > 100 µM (inactive)
NCI-H226
  GI50: > 100 µM (inactive)
NCI-H23
  GI50: > 100 µM (inactive)
NCI-H460
  GI50: > 100 µM (inactive)
NCI-H522
  GI50: > 100 µM (inactive)
OVCAR-3
  GI50: > 100 µM (inactive)
OVCAR-8
  GI50: > 100 µM (inactive)
RPMI-8226
  GI50: > 100 µM (inactive)
RXF 393
  GI50: > 100 µM (inactive)
RXF 631
  GI50: > 100 µM (inactive)
SF-295
  GI50: > 100 µM (inactive)
SF-539
  GI50: > 100 µM (inactive)
SK-MEL-28
  GI50: > 100 µM (inactive)
SK-MEL-5
  GI50: > 100 µM (inactive)
SK-OV-3
  GI50: > 100 µM (inactive)
SN12C
  GI50: > 100 µM (inactive)
SNB-75
  GI50: > 100 µM (inactive)
SNB-78
  GI50: > 100 µM (inactive)
SW-620
  GI50: > 100 µM (inactive)
TK-10
  GI50: > 100 µM (inactive)
U-251
  GI50: > 100 µM (inactive)
UACC-257
  GI50: > 100 µM (inactive)
UACC-62
  GI50: > 100 µM (inactive)
UO-31
  GI50: > 100 µM (inactive)

## Cc1c(OCCCOc2ccc3c(=O)cc(-c4ccccc4)oc3c2C)ccc2c(=O)cc(-c3ccccc3)oc12
786-0
  GI50: > 100 µM (inactive)
A498
  GI50: > 100 µM (inactive)
A549
  GI50: > 100 µM (inactive)
CAKI-1
  GI50: > 100 µM (inactive)
CCRF-CEM
  GI50: 68.7 µM (inactive)
DLD-1
  GI50: > 100 µM (inactive)
DMS-114
  GI50: > 100 µM (inactive)
DMS-273
  GI50: > 100 µM (inactive)
EKVX
  GI50: > 100 µM (inactive)
HCT-116
  GI50: > 100 µM (inactive)
HCT-15
  GI50: > 100 µM
HL-60
  GI50: 41.4 µM (inactive)
HOP-18
  GI50: > 100 µM (inactive)
HOP-62
  GI50: 61.1 µM (inactive)
HOP-92
  GI50: > 100 µM (inactive)
HT-29
  GI50: > 100 µM (inactive)
IGROV-1
  GI50: > 100 µM (inactive)
K562
  GI50: 59.2 µM (inactive)
KM-20L2
  GI50: > 100 µM (inactive)
KM12
  GI50: > 100 µM (inactive)
LOX IMVI
  GI50: > 100 µM (inactive)
LXFL 529
  GI50: > 100 µM (inactive)
M14
  GI50: > 100 µM (inactive)
M19-MEL
  GI50: > 100 µM (inactive)
MOLT-4
  GI50: > 100 µM (inactive)
Malme-3M
  GI50: > 100 µM (inactive)
NCI-H23
  GI50: > 100 µM (inactive)
NCI-H460
  GI50: > 100 µM (inactive)
NCI-H522
  GI50: > 100 µM (inactive)
OVCAR-3
  GI50: > 100 µM (inactive)
OVCAR-5
  GI50: > 100 µM (inactive)
OVCAR-8
  GI50: > 100 µM (inactive)
RPMI-8226
  GI50: > 100 µM (inactive)
RXF 393
  GI50: 74 µM (inactive)
SF-268
  GI50: > 100 µM (inactive)
SF-295
  GI50: > 100 µM (inactive)
SF-539
  GI50: > 100 µM (inactive)
SK-MEL-28
  GI50: > 100 µM (inactive)
SK-MEL-2
  GI50: > 100 µM (inactive)
SK-MEL-5
  GI50: > 100 µM (inactive)
SK-OV-3
  GI50: > 100 µM (inactive)
SNB-19
  GI50: > 100 µM (inactive)
SNB-78
  GI50: 51.2 µM (inactive)
SR
  GI50: 44.2 µM (inactive)
SW-620
  GI50: > 100 µM (inactive)
TK-10
  GI50: > 100 µM (inactive)
U-251
  GI50: > 100 µM (inactive)
UACC-257
  GI50: > 100 µM (inactive)
UACC-62
  GI50: > 100 µM (inactive)
UO-31
  GI50: > 100 µM (inactive)
XF498
  GI50: > 100 µM (inactive)
